The source of these data is article PMC6545112 (Journal of medicinal chemistry, 2018).

Entries after “also recorded” stand apart in the source; their conditions may differ. Where two headings read alike, the source gives them in different places.

For experiment [1], the system named is RS4;11 cell line. Put plainly: cell growth inhibition, WST-8 assay, RS4. It counts as cell-based, human. To be noted: for IC50: read-out: IC50 (nM) in inhibition of cell growth in the RS4;11 cell line, 4 days, WST-8 assay.
Experiment [2] has as its target MDM2 and p53 proteins in RS4;11 cells (Homo sapiens, UniProt Q00987). As to the kind of experiment: western blotting analysis of MDM2 and p53 proteins in RS4. It counts as cell-based. The settings on record: 2 h treatment; for effect on MDM2 and p53 protein levels (western blotting): RS4;11 cells.

MDM2 and p53 proteins in RS4;11 cells, sequence (Q00987 whole entry): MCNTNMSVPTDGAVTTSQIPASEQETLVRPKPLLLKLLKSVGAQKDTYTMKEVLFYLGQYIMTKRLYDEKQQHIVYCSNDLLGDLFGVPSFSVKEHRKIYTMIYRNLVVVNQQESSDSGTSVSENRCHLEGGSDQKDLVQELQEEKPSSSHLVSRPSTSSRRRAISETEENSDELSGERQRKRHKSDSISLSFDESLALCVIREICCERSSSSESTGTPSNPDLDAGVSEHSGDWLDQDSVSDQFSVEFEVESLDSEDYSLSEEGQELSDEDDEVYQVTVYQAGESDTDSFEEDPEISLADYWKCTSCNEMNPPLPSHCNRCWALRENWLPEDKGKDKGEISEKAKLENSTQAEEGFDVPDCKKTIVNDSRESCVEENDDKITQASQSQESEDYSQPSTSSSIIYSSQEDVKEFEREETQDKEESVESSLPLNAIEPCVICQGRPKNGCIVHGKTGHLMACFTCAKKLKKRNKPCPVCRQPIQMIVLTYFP

Consider “(3’R,4’S,5’R)-6”-Chloro-4’-(3-chloro-2-fluorophenyl)-N-(4-((4-((2-(2,6-dioxopiperidin-3-yl)-1-oxoisoindolin-4-yl)amino)butyl)carbamoyl)phenyl)-2”-oxodispiro[cyclohexane-1,2’-pyrrolidine-3’,3”-indoline]-5’-carboxamide [Compound 12]”, for which, in experiment [1] (RS4;11), the “times more potent than 1 in inhibition of cell growth” value was “twice as potent as 1”. Also, the IC50 in experiment [1] was determined as 5 ± 5 nM.
For `O=C1CCC(N2Cc3c(C#CCCNC(=O)c4ccc(NC(=O)[C@@H]5NC6(CCCCC6)[C@@]6(C(=O)Nc7cc(Cl)ccc76)[C@H]5c5cccc(Cl)c5F)cc4)cccc3C2=O)C(=O)N1` (stereo partly drawn) [Compound 15, (3’R,4’S,5’R)-6”-Chloro-4’-(3-chloro-2-fluorophenyl)-N-(4-((4-(2-(2,6-dioxopiperidin-3-yl)-1-oxoisoindolin-4-yl)but-3-yn-1-yl)carbamoyl)phenyl)-2”-oxodispiro[cyclohexane-1,2’-pyrrolidine-3’,3”-indoline]-5’-carboxamide], in experiment [1] (RS4;11), the “times less potent than MD-224 in inhibition of cell growth” value is 2 times.
In the case of `O=C1CCC(N2C(=O)c3cccc(NCCCCCCCNC(=O)c4ccc(NC(=O)[C@@H]5NC6(CCCCC6)[C@@]6(C(=O)Nc7cc(Cl)ccc76)[C@H]5c5cccc(Cl)c5F)cc4)c3C2=O)C(=O)N1` (stereo partly drawn) [Compound 8, (3’R,4’S,5’R)-6”-Chloro-4’-(3-Chloro-2-fluorophenyl)-N-(4-((7-((2-(2,6-dioxopiperidin-3-yl)-1,3-dioxoisoindolin-4-yl)amino)heptyl)carbamoyl)phenyl)-2”-oxodispiro[cyclohexane-1,2’-pyrrolidine-3’,3”-indoline]-5’-carboxamide], in experiment [2], the “effect on MDM2 and p53 protein levels (western blotting)” value (from here on “effect on MDM2 and p53 protein levels”) was “induce degradation of MDM2 and accumulation of p53”. The “times less potent than 1 in inhibition of cell growth” value in experiment [1] (RS4;11) is 10 times.
Consider `O=C1CCC(N2C(=O)c3cccc(NCCCNC(=O)c4ccc(NC(=O)[C@@H]5NC6(CCCCC6)[C@@]6(C(=O)Nc7cc(Cl)ccc76)[C@H]5c5cccc(Cl)c5F)cc4)c3C2=O)C(=O)N1` (stereo partly drawn) [Compound 5, (3’R,4’S,5’R)-6”-Chloro-4’-(3-Chloro-2-fluorophenyl)-N-(4-((3-((2-(2,6-dioxopiperidin-3-yl)-1,3-dioxoisoindolin-4-yl)amino)propyl)carbamoyl)phenyl)-2”-oxodispiro[cyclohexane-1,2’-pyrrolidine-3’,3”-indoline]-5’-carboxamide], for which the “effect on MDM2 and p53 protein levels” value in experiment [2] is “induce degradation of MDM2 and accumulation of p53”.
For “(3’R,4’S,5’R)-6”-Chloro-4’-(3-Chloro-2-fluorophenyl)-N-(4-((5-(2-(2,6-dioxopiperidin-3-yl)-3-oxoisoindolin-5-yl)pent-4-yn-1-yl)carbamoyl)phenyl)-2”-oxodispiro[cyclohexane-1,2’-pyrrolidine-3’,3”-indoline]-5’-carboxamide [Compound 17]”, the “effect on MDM2 and p53 protein levels” value in experiment [2] is “effectively induce degradation of MDM2 and accumulation of p53”. Besides, the “times less potent than MD-224 in inhibition of cell growth” value in experiment [1] (RS4;11) was 3 times. The 50% inhibitory concentration (IC50) in experiment [1] was determined as 5 ± 3 nM.
Regarding `O=C1CCC(N2C(=O)c3cccc(CCCCCNC(=O)c4ccc(NC(=O)[C@@H]5NC6(CCCCC6)[C@@]6(C(=O)Nc7cc(Cl)ccc76)[C@H]5c5cccc(Cl)c5F)cc4)c3C2=O)C(=O)N1` (stereo partly drawn) [Compound 11, (3’R,4’S,5’R)-6”-Chloro-4’-(3-Chloro-2-fluorophenyl)-N-(4-((5-(2-(2,6-dioxopiperidin-3-yl)-1,3-dioxoisoindolin-4-yl)pentyl)carbamoyl)phenyl)-2”-oxodispiro[cyclohexane-1,2’-pyrrolidine-3’,3”-indoline]-5’-carboxamide], in experiment [1] (RS4;11), the “times less potent than 1 in inhibition of cell growth” value was 3 times.
For `O=C1CCC(N2C(=O)c3cccc(NCCOCCOCCOCCNC(=O)c4ccc(NC(=O)[C@@H]5NC6(CCCCC6)[C@@]6(C(=O)Nc7cc(Cl)ccc76)[C@H]5c5cccc(Cl)c5F)cc4)c3C2=O)C(=O)N1` (stereo partly drawn) [Compound 10, (3’R,4’S,5’R)-6”-Chloro-4’-(3-Chloro-2-fluorophenyl)-N-(4-((2-(2-(2-(2-((2-(2,6-dioxopiperidin-3-yl)-1,3-dioxoisoindolin-4-yl)amino)ethoxy)ethoxy)ethoxy)-ethyl)carbamoyl)phenyl)-2”-oxodispiro[cyclohexane-1,2’-pyrrolidine-3’,3”-indoline]-5’-carboxamide], the “effect on MDM2 and p53 protein levels” value in experiment [2] was “effectively induce degradation of MDM2 and accumulation of p53”. For the same compound, the concentration for half-maximal inhibition (IC50) in experiment [1] (Homo sapiens, RS4-11, 96 h) was found to be 4.5 nM.
Consider `O=C1CCC(N2C(=O)c3cccc(NCCCCNC(=O)c4ccc(NC(=O)[C@@H]5NC6(CCCCC6)[C@@]6(C(=O)Nc7cc(Cl)ccc76)[C@H]5c5cccc(Cl)c5F)cc4)c3C2=O)C(=O)N1` (stereo partly drawn) [Compound 1, (3’R,4’S,5’R)-6”-Chloro-4’-(3-Chloro-2-fluorophenyl)-N-(4-((4-((2-(2,6-dioxopiperidin-3-yl)-1,3-dioxoisoindolin-4-yl)amino)butyl)carbamoyl)phenyl)-2”-oxodispiro[cyclohexane-1,2’-pyrrolidine-3’,3”-indoline]-5’-carboxamide], for which, in experiment [2] (RS4;11 / leukemia cells), the “concentration that reduces/depletes MDM2 protein” value came to 3 nM. The “effect on MDM2 and p53 protein levels” value in experiment [2] is given as “effectively reduce the level of MDM2 protein”. For the same compound, the “times more potent than MI-1061 and MI-1242 in inhibition of cell growth” value in experiment [1] (RS4;11) is “about 10 times”.
`O=C1CCC(N2C(=O)c3cccc(NCCNC(=O)c4ccc(NC(=O)[C@@H]5NC6(CCCCC6)[C@@]6(C(=O)Nc7cc(Cl)ccc76)[C@H]5c5cccc(Cl)c5F)cc4)c3C2=O)C(=O)N1` (stereo partly drawn) [Compound 4, (3’R,4’S,5’R)-6”-Chloro-4’-(3-Chloro-2-fluorophenyl)-N-(4-((2-((2-(2,6-dioxopiperidin-3-yl)-1,3-dioxoisoindolin-4-yl)amino)ethyl)carbamoyl)phenyl)-2”-oxodispiro[cyclohexane-1,2’-pyrrolidine-3’,3”-indoline]-5’-carboxamide]: in experiment [2], the “effect on MDM2 and p53 protein levels” value is “induce degradation of MDM2 and accumulation of p53”.
With `O=C1CCC(N2C(=O)c3cccc(NCCOCCNC(=O)c4ccc(NC(=O)[C@@H]5NC6(CCCCC6)[C@@]6(C(=O)Nc7cc(Cl)ccc76)[C@H]5c5cccc(Cl)c5F)cc4)c3C2=O)C(=O)N1` (stereo partly drawn) [Compound 9, (3’R,4’S,5’R)-6”-Chloro-4’-(3-Chloro-2-fluorophenyl)-N-(4-((2-(2-((2-(2,6-dioxopiperidin-3-yl)-1,3-dioxoisoindolin-4-yl)amino)ethoxy)ethyl)carbamoyl)phenyl)-2”-oxodispiro[cyclohexane-1,2’-pyrrolidine-3’,3”-indoline]-5’-carboxamide], the “effect on MDM2 and p53 protein levels” value in experiment [2] is “effectively induce degradation of MDM2 and accumulation of p53”.
Take `CNC(=O)c1ccc(NC(=O)[C@@H]2NC3(CCCCC3)[C@@]3(C(=O)Nc4cc(Cl)ccc43)[C@H]2c2cccc(Cl)c2F)cc1` [MI-1242]: the “effect on MDM2 and p53 protein levels” value in experiment [2] was “inducing accumulation of both MDM2 and p53”.
As for `O=C1CCC(N2C(=O)c3cccc(NCCOCCOCCNC(=O)c4ccc(NC(=O)[C@@H]5NC6(CCCCC6)[C@@]6(C(=O)Nc7cc(Cl)ccc76)[C@H]5c5cccc(Cl)c5F)cc4)c3C2=O)C(=O)N1` (stereo partly drawn) [Compound 2, (3’R,4’S,5’R)-6”-Chloro-4’-(3-Chloro-2-fluorophenyl)-N-(4-((2-(2-(2-((2-(2,6-dioxopiperidin-3-yl)-1,3-dioxoisoindolin-4-yl)amino)ethoxy)ethoxy)-ethyl)carbamoyl)phenyl)-2”-oxodispiro[cyclohexane-1,2’-pyrrolidine-3’,3”-indoline]-5’-carboxamide], in experiment [2], the “effect on MDM2 and p53 protein levels” value was “effectively reduce the level of MDM2 protein; also recorded: effectively induce degradation of MDM2 and accumulation of p53”. Moreover, the “times more potent than MI-1061 and MI-1242 in inhibition of cell growth” value in experiment [1] (RS4;11) is “about 10 times”.
Take `O=C1CCC(N2Cc3c(C#CCCCNC(=O)c4ccc(NC(=O)[C@H]5NC6(CCCCC6)[C@]6(C(=O)Nc7cc(Cl)ccc76)[C@@H]5c5cccc(Cl)c5F)cc4)cccc3C2=O)C(=O)N1` (stereo partly drawn) [Compound 21, (3’S,4’R,5’S)-6”-Chloro-4’-(3-chloro-2-fluorophenyl)-N-(4-((5-(2-(2,6-dioxopiperidin-3-yl)-1-oxoisoindolin-4-yl)pent-4-yn-1-yl)carbamoyl)phenyl)-2”-oxodispiro[cyclohexane-1,2’-pyrrolidine-3’,3”-indoline]-5’-carboxamide]: the “effect on MDM2 and p53 protein levels” value in experiment [2] was “fails to induce any MDM2 degradation”. In experiment [1] (RS4;11), the “activity in inhibition of cell growth (in words)” value is “minimal activity”.
For `O=C1CCC(N2C(=O)c3cccc(NCCCCCCNC(=O)c4ccc(NC(=O)[C@@H]5NC6(CCCCC6)[C@@]6(C(=O)Nc7cc(Cl)ccc76)[C@H]5c5cccc(Cl)c5F)cc4)c3C2=O)C(=O)N1` (stereo partly drawn) [Compound 7, (3’R,4’S,5’R)-6”-Chloro-4’-(3-Chloro-2-fluorophenyl)-N-(4-((6-((2-(2,6-dioxopiperidin-3-yl)-1,3-dioxoisoindolin-4-yl)amino)hexyl)carbamoyl)phenyl)-2”-oxodispiro[cyclohexane-1,2’-pyrrolidine-3’,3”-indoline]-5’-carboxamide], in experiment [2], the “effect on MDM2 and p53 protein levels” value was “induce degradation of MDM2 and accumulation of p53”.
Turning to `O=C1CCC(N2C(=O)c3cccc(NCCCCCNC(=O)c4ccc(NC(=O)[C@@H]5NC6(CCCCC6)[C@@]6(C(=O)Nc7cc(Cl)ccc76)[C@H]5c5cccc(Cl)c5F)cc4)c3C2=O)C(=O)N1` (stereo partly drawn) [Compound 6, (3’R,4’S,5’R)-6”-Chloro-4’-(3-Chloro-2-fluorophenyl)-N-(4-((5-((2-(2,6-dioxopiperidin-3-yl)-1,3-dioxoisoindolin-4-yl)amino)pentyl)carbamoyl)phenyl)-2”-oxodispiro[cyclohexane-1,2’-pyrrolidine-3’,3”-indoline]-5’-carboxamide], in experiment [2], the “effect on MDM2 and p53 protein levels” value was “induce degradation of MDM2 and accumulation of p53”.
